T1: FKBP12 (C. albicans) (Candida albicans, UniProt P28870)
T1 construct: gene RBP1; E. coli BL21(DE3), N-terminal 6xHis cut by thrombin, 15N/13C labelled, free FKBP12
T1 sequence (P28870 1-124): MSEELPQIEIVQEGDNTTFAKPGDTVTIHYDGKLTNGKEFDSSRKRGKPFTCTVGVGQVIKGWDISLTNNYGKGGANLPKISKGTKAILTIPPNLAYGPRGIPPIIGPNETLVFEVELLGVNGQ

B1: C. neoformans calcineurin regulatory subunit (CnB), residues 1-175 (natural protein)
chain: MGAAESSMFNSLEKNSNFSGPELMRLKKRFMKLDKDGSGSIDKDEFLQIPQIANNPLAHRMIAIFDEDGSGTVDFQEFVGGLSAFSSKGGRDEKLRFAFKVYDMDRDGYISNGELYLVLKQMVGNNLKDQQLQQIVDKTIMEADKDGDGKLSFEEFTQMVASTDIVKQMTLEDLF
notes: also called calcineurin B

Legend:
FKBP12 (C. albicans) = biological target: T1, FKBP12 (C. albicans); type: binding; conditions: pH […] °C, […] phosphate, […] NaCl
[1] = biological target: T2, A. fumigatus CN/FKBP12 complex (CnA/CnB/AfFKBP12) (Aspergillus fumigatus, UniProt Q4WDF2+Q4WLV6+Q4WUR1); conditions: ternary complex CnA/CnB-FK506-FKBP12; at the FKBP12-BBH/CnB interface, not the phosphatase active site
T2 construct: gene cnaA

[2] = biological target: T3, C. neoformans calcineurin catalytic subunit (CnA), residues 34-402 (C. neoformans, UniProt O42773 34-402); assay: crystal structure; conditions: both partners purified
T3 construct: also called calcineurin A
T3 sequence (O42773 34-402): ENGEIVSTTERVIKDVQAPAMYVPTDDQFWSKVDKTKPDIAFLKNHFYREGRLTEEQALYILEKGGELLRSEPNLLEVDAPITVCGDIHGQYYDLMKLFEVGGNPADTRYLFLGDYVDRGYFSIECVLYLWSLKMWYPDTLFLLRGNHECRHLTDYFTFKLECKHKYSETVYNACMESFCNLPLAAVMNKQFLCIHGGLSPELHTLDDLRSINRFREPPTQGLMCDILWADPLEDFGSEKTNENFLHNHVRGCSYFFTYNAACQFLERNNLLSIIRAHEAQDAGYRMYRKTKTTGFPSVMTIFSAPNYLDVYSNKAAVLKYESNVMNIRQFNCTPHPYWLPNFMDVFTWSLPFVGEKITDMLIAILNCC

T2 sequence (Q4WDF2 entry or part of it): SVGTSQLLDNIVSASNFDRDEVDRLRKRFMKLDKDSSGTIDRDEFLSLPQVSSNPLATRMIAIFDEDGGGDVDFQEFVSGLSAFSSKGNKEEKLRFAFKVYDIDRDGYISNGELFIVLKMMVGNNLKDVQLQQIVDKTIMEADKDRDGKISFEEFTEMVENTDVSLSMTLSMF
T2 sequence (Q4WUR1 2-370): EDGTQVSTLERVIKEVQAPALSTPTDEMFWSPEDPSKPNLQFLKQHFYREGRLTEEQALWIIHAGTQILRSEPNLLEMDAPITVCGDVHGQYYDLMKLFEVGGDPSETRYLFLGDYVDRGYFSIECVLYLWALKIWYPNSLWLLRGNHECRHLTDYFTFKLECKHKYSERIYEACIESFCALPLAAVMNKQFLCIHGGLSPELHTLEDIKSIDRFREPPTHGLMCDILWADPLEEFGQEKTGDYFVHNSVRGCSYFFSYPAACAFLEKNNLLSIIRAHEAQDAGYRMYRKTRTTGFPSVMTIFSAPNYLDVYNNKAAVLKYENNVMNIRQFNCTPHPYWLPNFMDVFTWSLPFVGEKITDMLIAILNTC
T2 sequence (Q4WLV6 2-112): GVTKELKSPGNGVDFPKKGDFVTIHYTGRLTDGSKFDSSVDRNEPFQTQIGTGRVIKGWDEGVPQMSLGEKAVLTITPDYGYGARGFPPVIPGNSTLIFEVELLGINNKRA

Row | Molecule | NMR resonance assignment of apo and FK506-bound state (FKBP12 (C. albicans)) | X-ray crystal structure, 2.50 Å [1] | binding result [2]
1 | C=CC[C@@H]1/C=C(\C)C[C@H](C)C[C@H](OC)[C@H]2O[C@@](O)(C(=O)C(=O)N3CCCC[C@H]3C(=O)O[C@H](/C(C)=C/[C@@H]3CC[C@@H](O)[C@H](OC)C3)[C@H](C)[C@@H](O)CC1=O)[C@H](C)C[C@@H]2OC [FK506] | A. fumigatus and C. albicans were determined in both the apo and FK506 bound states | A single copy of the complex was placed per asymmetric unit (PDB ID: 6TZ7) | 
2 | B1 |  |  | binds
